The values that follow come from patent publication US8101656B2, “Use of 2,2-dimethyl-3-(2,4-dichlorophenyl)-2-oxo-1-oxaspiro[4,5]dec-3-en-4-yl butanoate for controlling acarides” (Bayer CropScience AG, priority 2003, dated 2012).

Assay type in all cases: in vivo
The subject of assay [1] is Tetranychus urticae. Briefly: Example B: field spray test against spider mites on hops. The note with it: 2200 l/ha, sprayed once. As for the experimental part:
Pest: Tetranycus Urticae Crop: Hops The compound of the formula (I) (240SC) was tested at a concentration of 0.0144% a.i. in comparison with the standard Amitraz (200 EC) at 0.05% a.i. The mixture was sprayed once. The spray mixture (2200 l/ha) was applied using a trailed machine operated by a tractor. The plot size was 60 plants, and 2 replications were carried out per test variant. The activity against spider mites was determined 5, 12, 19 and 34 days after the treatment by counting the live animals/leaf (60 leaves/plot) and calculating the efficacy using Abbott's formula.

A further assay deals with Eotetranychus hicoriae. Briefly: Example D: spray test against pecan leaf scorch mite on pecan nut tree. As to conditions: 0.313 pounds a.i. per acre. As for the experimental part:
Pest: Eotetranychus Hicoriae
The compound of the formula (I) (240 SC) was tested at an application rate of 0.313 lb a.i. per acre in comparison with ACRAMIT (Bifenazate, 50 WP) at 0.50 pound of a.i. per acre.
The spray mixture (105 gallons per acre) was applied by means of a motor-operated hand-held sprayer.
The experiment was carried out with one tree per plot and four replication experiments.
The efficacy against the pecan leaf scorch mite was determined by counting the number of live mites on five leaves per tree 6 and 13 days after the application and subsequently calculated by means of the Abbott formula.

For assay [2], the system named is Tetranychus urticae. Briefly: Example C: spray test against spider mites (eggs and nymphs) on black walnut tree. As to conditions: 0.126 pounds a.i. per acre. As for the experimental part:
Pest: Tetranychus Urticae
The compound of the formula (I) (240 SC) was tested at a concentration of 2.02 ounces a.i. per 100 gallons (=0.126 pounds a.i. per acre) in comparison with PYRAMAT (Pyridaben, 75 WP) at an application rate of 0.125 pound a.i. per acre.
The spray mixture (100 gallons per acre) was applied by means of a motor-operated hand-held sprayer.
The test was carried out with one tree per plot and three replication experiments.
The efficacy against spider mites was calculated by counting the live eggs and nymphs on eight leaves per tree before and one, two and six weeks after the application and subsequently calculated using the formula of Henderson & Tilton.

The test system of assay [3] is Tetranychus urticae. Description: Example A: field spray test against spider mites on hops. As to conditions: 2000 l/ha. How it is done:
Pest: Tetranychus Urticae Crop: Hops The compound of the formula (I) (240SC) was tested at a concentration of 0.0048% a.i. in comparison with cis-cyhalothrin (050EC) at 0.005% a.i. The compound of the formula (I) was used at an early stage of the infestation of the pest, while cis-cyhalothrin was applied when the infestation had progressed to a high level. The spray mixture (2000 l/ha) was applied using a knapsack sprayer operated with compressed air. The plot size was 6 plants, the number of replications per test variant was 2. The activity against spider mites was determined 4, 14 and 21 days (compound of the formula (I)) and 4, 11 and 18 days (cis-cyhalothrin) after the treatment by counting the live animals/leaf (10 leaves/plot) and calculating the efficacy using Abbott's formula.

Molecules are shown by their SMILES.

As for `Cc1ccc(/N=C/N(C)/C=N/c2ccc(C)cc2C)c(C)c1` [Amitraz (200 EC), Amitraz, reference compound], the “Efficacy in % Abbott” value in the assay on Tetranychus urticae [1] (0.05% a.i., 5 days after treatment) amounted to 80.1%; with Tetranychus urticae [1] (0.05% a.i., 12 days after treatment), 96.3%; with Tetranychus urticae [1] (0.05% a.i., 19 days after treatment) it was 92.2%.

Regarding `CCC(C)(C)C(=O)OC1=C(c2ccc(Cl)cc2Cl)C(=O)OC12CCCCC2` [Compound of the formula (I) (240 SC), 2,2-Dimethyl-3-(2,4-dichlorophenyl)-2-oxo-1-oxaspiro[4.5]dec-3-en-yl butanoate], the “Efficacy in Abbot %” value is given as 100% with Eotetranychus hicoriae (6 DAA (days after application)) and 80% in the assay on Eotetranychus hicoriae (13 DAA). Besides, the figures for the “Efficacy in Henderson&Tilton % against NYMPHS” value in the assay with Tetranychus urticae [2] (1 WAA), in the assay with Tetranychus urticae [2] (2 WAA) and in the assay on Tetranychus urticae [2] (6 WAA) were 100%, 100% and 83%, respectively. Also, the “Efficacy in Henderson&Tilton % against EGGS” value with Tetranychus urticae [2] (1 WAA (one week after application)) stood at 100%; in the assay with Tetranychus urticae [2] (2 WAA), 100%; with Tetranychus urticae [2] (6 WAA), 64%. Also, the “Efficacy in % Abbott” value with Tetranychus urticae [1] (0.0144% a.i., 5 days after treatment) is 89.7%; with Tetranychus urticae [1] (0.0144% a.i., 12 days after treatment), 98.1%; in the assay with Tetranychus urticae [1] (0.0144% a.i., 19 days after treatment) it was 99.6%; in the assay on Tetranychus urticae [3] (0.0048% a.i., applied at early stage of infestation, 4 days after treatment), 90%; in the assay on Tetranychus urticae [3] (0.0048% a.i., applied at early stage of infestation, 14 days after treatment) it was 94%; in the assay with Tetranychus urticae [3] (0.0048% a.i., applied at early stage of infestation, 21 days after treatment) it was 93%.

In the case of `CC1(C)C(/C=C(\Cl)C(F)(F)F)C1C(=O)OC(C#N)c1cccc(Oc2ccccc2)c1` (stereo not drawn) [Cis-cyhalothrin (050 EC), cis-cyhalothrin, reference compound], the “Efficacy in % Abbott” value came out at 59% with Tetranychus urticae [3] (0.005% a.i., applied at high level of infestation, 4 days after treatment); 57% in the assay on Tetranychus urticae [3] (0.005% a.i., applied at high level of infestation, 11 days after treatment); 0% in the assay on Tetranychus urticae [3] (0.005% a.i., applied at high level of infestation, 18 days after treatment).
